Results reported in ChEMBL document CHEMBL1201862, “PubChem BioAssay data set” (2004).
Where “and” joins values, the source holds several entries; their conditions need not be identical. Equal values may be shown once.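 Test compounds were applied to cells in 96-well plates for 48 hours at 5 doses. Abbreviation: GI50, concentration required for 50% inhibition of growth.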 Calls of active or inactive are those of the source. Cut-off read from the data, not from the text of the source: active = GI50 up to about 1.1 µM and inactive = higher.

Assays:
Experiment in all cases: NCI tumour cell line growth inhibition, 48 h
[1] = system: COLO 205
[2] = system: UACC-257
[3] = system: OVCAR-8
[4] = system: CCRF-CEM
[5] = system: HL-60
[6] = system: IGROV-1
[7] = system: SNB-19
[8] = system: T47D
[9] = system: RXF 393
[10] = system: RPMI-8226
[11] = system: HOP-62
[12] = system: SN12C
[13] = system: SW-620
[14] = system: MDA-N
[15] = system: MOLT-4
[16] = system: HCT-15
[17] = system: Malme-3M
[18] = system: ACHN
[19] = system: SF-268
[20] = system: KM12
[21] = system: TK-10
[22] = system: HCC 2998
[23] = system: U-251
[24] = system: SF-295
[25] = system: NCI-H23
[26] = system: HT-29
[27] = system: NCI/ADR-RES
[28] = system: DU-145
[29] = system: SK-MEL-2
[30] = system: UACC-62
[31] = system: SK-OV-3
[32] = system: LOX IMVI
[33] = system: SR
[34] = system: NCI-H460
[35] = system: HCT-116
[36] = system: HOP-92
[37] = system: SF-539
[38] = system: NCI-H226
[39] = system: SK-MEL-28
[40] = system: K562
[41] = system: UO-31
[42] = system: MDA-MB-231
[43] = system: MDA-MB-435
[44] = system: OVCAR-5
[45] = system: NCI-H522
[46] = system: OVCAR-4
[47] = system: A498
[48] = system: A549
[49] = system: PC-3
[50] = system: SK-MEL-5
[51] = system: CAKI-1
[52] = system: EKVX
[53] = system: SNB-75
[54] = system: Hs-578T
[55] = system: 786-0
[56] = system: MCF7
[57] = system: OVCAR-3
[58] = system: M14

Cc1ccc(/N=C2\SC(=NN(C)C)S\C2=N/c2ccc(C)cc2)cc1
GI50 [1]: > 100 µM (inactive)
GI50 [2]: > 100 µM (inactive)
GI50 [3]: > 100 µM (inactive)
GI50 [4]: > 100 µM (inactive)
GI50 [5]: > 100 µM (inactive)
GI50 [6]: > 100 µM (inactive)
GI50 [7]: > 100 µM (inactive)
GI50 [8]: > 100 µM (inactive)
GI50 [9]: > 100 µM (inactive)
GI50 [10]: > 100 µM (inactive)
GI50 [11]: > 100 µM (inactive)
GI50 [12]: > 100 µM (inactive)
GI50 [13]: > 100 µM (inactive)
GI50 [14]: > 100 µM (inactive)
GI50 [15]: > 100 µM (inactive)
GI50 [16]: > 100 µM
GI50 [17]: > 100 µM (inactive)
GI50 [18]: > 100 µM (inactive)
GI50 [19]: > 100 µM (inactive)
GI50 [20]: > 100 µM (inactive)
GI50 [21]: > 100 µM (inactive)
GI50 [22]: > 100 µM (inactive)
GI50 [23]: > 100 µM (inactive)
GI50 [24]: > 100 µM (inactive)
GI50 [25]: > 100 µM (inactive)
GI50 [26]: > 100 µM (inactive)
GI50 [27]: > 100 µM (inactive)
GI50 [28]: > 100 µM (inactive)
GI50 [29]: > 100 µM (inactive)
GI50 [30]: > 100 µM (inactive)
GI50 [31]: > 100 µM (inactive)
GI50 [32]: > 100 µM (inactive)
GI50 [33]: > 100 µM (inactive)
GI50 [34]: > 100 µM (inactive)
GI50 [35]: > 100 µM (inactive)
GI50 [36]: > 100 µM (inactive)
GI50 [37]: > 100 µM (inactive)
GI50 [38]: > 100 µM (inactive)
GI50 [39]: > 100 µM (inactive)
GI50 [40]: > 100 µM (inactive)
GI50 [41]: > 100 µM (inactive)
GI50 [42]: > 100 µM (inactive)
GI50 [43]: > 100 µM (inactive)
GI50 [44]: > 100 µM (inactive)
GI50 [45]: 4.71 µM (inactive)
GI50 [46]: > 100 µM (inactive)
GI50 [47]: > 100 µM (inactive)
GI50 [48]: > 100 µM (inactive)
GI50 [49]: > 100 µM (inactive)
GI50 [50]: > 100 µM (inactive)
GI50 [51]: > 100 µM (inactive)
GI50 [52]: > 100 µM (inactive)
GI50 [53]: > 100 µM (inactive)
GI50 [54]: > 100 µM (inactive)
GI50 [55]: > 100 µM (inactive)

CCN1c2ccccc2-n2c(C)nnc2-c2c(-c3ccccc3)n[nH]c21
GI50 [1]: 32.4 µM (inactive)
GI50 [2]: > 100 µM (inactive)
GI50 [3]: 24.7 µM (inactive)
GI50 [4]: 17.5 µM (inactive)
GI50 [5]: 12.4 µM (inactive)
GI50 [6]: 21.4 µM (inactive)
GI50 [7]: 42.9 µM (inactive)
GI50 [8]: 14.7 µM (inactive)
GI50 [9]: 44.5 µM (inactive)
GI50 [10]: 14.8 µM (inactive)
GI50 [12]: 24.4 µM (inactive)
GI50 [13]: 36.2 µM (inactive)
GI50 [14]: 28 µM (inactive)
GI50 [15]: 18.2 µM (inactive)
GI50 [16]: 11.1 µM
GI50 [18]: 14.3 µM (inactive)
GI50 [19]: 35.8 µM (inactive)
GI50 [20]: 26.5 µM (inactive)
GI50 [21]: 41.4 µM (inactive)
GI50 [23]: 18.5 µM (inactive)
GI50 [24]: 31 µM (inactive)
GI50 [56]: > 10 µM (inactive)
GI50 [25]: 35.5 µM (inactive)
GI50 [26]: 24.5 µM (inactive)
GI50 [27]: 11.9 µM (inactive)
GI50 [28]: 36.1 µM (inactive)
GI50 [29]: 19.7 µM (inactive)
GI50 [30]: 22.4 µM (inactive)
GI50 [31]: 57.9 µM (inactive)
GI50 [32]: 23.1 µM (inactive)
GI50 [33]: 13 µM (inactive)
GI50 [34]: 27.8 µM (inactive)
GI50 [35]: 26.5 µM (inactive)
GI50 [36]: 50.7 µM (inactive)
GI50 [37]: 43.4 µM (inactive)
GI50 [39]: 30.5 µM (inactive)
GI50 [40]: 4.83 µM (inactive)
GI50 [57]: 36.4 µM (inactive)
GI50 [41]: 44.8 µM (inactive)
GI50 [42]: 18.9 µM (inactive)
GI50 [43]: 16.2 µM (inactive)
GI50 [44]: > 100 µM (inactive)
GI50 [45]: 2.25 µM (inactive)
GI50 [46]: 22 µM (inactive)
GI50 [48]: 22.4 µM (inactive)
GI50 [49]: 30.4 µM (inactive)
GI50 [50]: 14.5 µM (inactive)
GI50 [51]: > 10 µM (inactive)
GI50 [52]: 49.7 µM (inactive)
GI50 [53]: 67 µM (inactive)
GI50 [54]: 46.1 µM (inactive)
GI50 [58]: 26.4 µM (inactive)

CC(=O)OCC1OC(n2c(=S)n(-c3ccc(C)cc3)c(=O)c3ccccc32)C(OC(C)=O)C(OC(C)=O)C1OC(C)=O (centres undefined)
GI50 [9]: 83 µM (inactive) and 67 µM (inactive)
GI50 [10]: 86.3 µM (inactive) and 49.1 µM (inactive)
GI50 [15]: 65.3 µM (inactive)
GI50 [21]: 29 µM (inactive)
GI50 [33]: 23.7 µM (inactive)
GI50 [36]: 31.6 µM (inactive) and 30.4 µM (inactive)
GI50 [41]: 62.4 µM (inactive) and 58.1 µM (inactive)
